# Measured values as given in US20240425479A1, “HALO-SUBSTITUTED AMINO AZA-HETEROARYL COMPOUNDS AS INHIBITORS OF THE HAEMATOPOIETIC PROGENITOR KINASE 1 (HPK1)” (priority 2021, published 2024).
# Molecular target: T1, Recombinant (1-346) HPK1 (h) (Homo sapiens, UniProt Q92918)
# T1 construct: Recombinant (1-346) HPK1 (h) is incubated with 8 mM MOPS pH 7.0
# T1 sequence (Q92918 1-346): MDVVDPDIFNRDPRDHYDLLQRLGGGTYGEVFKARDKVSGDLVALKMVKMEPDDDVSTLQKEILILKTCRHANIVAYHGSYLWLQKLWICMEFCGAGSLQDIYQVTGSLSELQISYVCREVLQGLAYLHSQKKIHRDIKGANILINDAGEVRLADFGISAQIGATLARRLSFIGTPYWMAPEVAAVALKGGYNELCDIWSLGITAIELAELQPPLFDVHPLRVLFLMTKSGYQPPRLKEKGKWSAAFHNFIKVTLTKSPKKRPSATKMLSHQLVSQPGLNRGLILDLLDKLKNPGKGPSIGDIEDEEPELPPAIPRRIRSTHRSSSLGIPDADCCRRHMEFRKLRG
# Test: HPK1 human STE kinase enzymatic radiometric assay
# Type: biochemical
# Conditions: read-out: HPK1 IC50 nM Range
# Outline: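 Recombinant HPK1 (1-346) incubated 40 min at RT with 0.33 mg/mL myelin basic protein and [gamma-33P]-ATP in 8 mM MOPS pH 7.0, 0.2 mM EDTA, 10 mM Mg acetate; reaction started with Mg/ATP. Stopped with 0.5% phosphoric acid, spotted on P30 filtermat, washed, scintillation counted. Compounds tested as 9-point 3-fold dilutions.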
row,SMILES,IC50
1,"Cc1c[nH]c(=O)c2ccc(-c3nc(-c4ccc(C5CCOCC5)c(CN5CCCC5)c4)c(F)nc3N)cc12 [Example I-205, 6-(3-amino-5-fluoro-6-(3-(pyrrolidin-1-ylmethyl)-4-(tetrahydro-2H-pyran-4-yl)phenyl)pyrazin-2-yl)-4-methylisoquinolin-1(2H)-one]",0.1 to 10 nM
2,"Cc1c[nH]c(=O)c2ccc(-c3nc(-c4ccc(C5CCOCC5)c(CN5CCC5)c4)c(F)nc3N)cc12 [Example I-206, 6-(3-amino-6-(3-(azetidin-1-ylmethyl)-4-(tetrahydro-2H-pyran-4-yl)phenyl)-5-fluoropyrazin-2-yl)-4-methylisoquinolin-1(2H)-one]",0.1 to 10 nM
3,"Nc1nc(F)c(-c2ccc(C3CCOCC3)c(CN3CCCC3)c2)nc1-c1ccc2c(=O)[nH]cc(F)c2c1 [Example I-207, 6-(3-amino-5-fluoro-6-(3-(pyrrolidin-1-ylmethyl)-4-(tetrahydro-2H-pyran-4-yl)phenyl)pyrazin-2-yl)-4-fluoroisoquinolin-1(2H)-one]",0.1 to 10 nM
4,"Nc1nc(F)c(-c2ccc(OC3CCOCC3)c(CN3CCC3)c2)nc1-c1ccc2c(c1)CCNC2=O [Example I-208, 6-(3-amino-6-(3-(azetidin-1-ylmethyl)-4-((tetrahydro-2H-pyran-4-yl)oxy)phenyl)-5-fluoropyrazin-2-yl)-3,4-dihydroisoquinolin-1(2H)-one]",11 to 100 nM
5,"Nc1nc(F)c(-c2ccc(OC3CCOCC3)c(CN3CCC3)c2)nc1-c1cc2c(cc1F)C(=O)NCC2 [Example I-209, 6-(3-amino-6-(3-(azetidin-1-ylmethyl)-4-((tetrahydro-2H-pyran-4-yl)oxy)phenyl)-5-fluoropyrazin-2-yl)-7-fluoro-3,4-dihydroisoquinolin-1(2H)-one]",11 to 100 nM
6,"Nc1nc(F)c(-c2ccc(OC3CCOCC3)c(CN3CCC3)c2)nc1-c1cc(F)c2c(c1)CCNC2=O [Example I-210, 6-(3-amino-6-(3-(azetidin-1-ylmethyl)-4-((tetrahydro-2H-pyran-4-yl)oxy)phenyl)-5-fluoropyrazin-2-yl)-8-fluoro-3,4-dihydroisoquinolin-1(2H)-one]",11 to 100 nM
7,"C[C@H]1CN(c2ccc(-c3nc(-c4ccc5c(c4)CCNC5=O)c(N)nc3F)cc2CN(C)C)CCO1 [Example I-211, (S)-6-(3-amino-6-(3-((dimethylamino)methyl)-4-(2-methylmorpholino)phenyl)-5-fluoropyrazin-2-yl)-3,4-dihydroisoquinolin-1(2H)-one]",0.1 to 10 nM
8,"C[C@H]1CN(c2ccc(-c3nc(-c4cc5c(cc4F)C(=O)NCC5)c(N)nc3F)cc2CN(C)C)CCO1 [Example I-212, (S)-6-(3-amino-6-(3-((dimethylamino)methyl)-4-(2-methylmorpholino)phenyl)-5-fluoropyrazin-2-yl)-7-fluoro-3,4-dihydroisoquinolin-1(2H)-one]",0.1 to 10 nM
9,"C[C@H]1CN(c2ccc(-c3nc(-c4cc(F)c5c(c4)CCNC5=O)c(N)nc3F)cc2CN(C)C)CCO1 [Example I-213, (S)-6-(3-amino-6-(3-((dimethylamino)methyl)-4-(2-methylmorpholino)phenyl)-5-fluoropyrazin-2-yl)-8-fluoro-3,4-dihydroisoquinolin-1(2H)-one]",0.1 to 10 nM
10,"C[C@H]1CN(c2ccc(-c3nc(-c4ccc5c(c4)CCNC5=O)c(N)nc3F)cc2CN2CCC2)CCO1 [Example I-214, (S)-6-(3-amino-6-(3-(azetidin-1-ylmethyl)-4-(2-methylmorpholino)phenyl)-5-fluoropyrazin-2-yl)-3,4-dihydroisoquinolin-1(2H)-one]",0.1 to 10 nM
11,"C[C@H]1CN(c2ccc(-c3nc(-c4cc5c(cc4F)C(=O)NCC5)c(N)nc3F)cc2CN2CCC2)CCO1 [Example I-215, (S)-6-(3-amino-6-(3-(azetidin-1-ylmethyl)-4-(2-methylmorpholino)phenyl)-5-fluoropyrazin-2-yl)-7-fluoro-3,4-dihydroisoquinolin-1(2H)-one]",0.1 to 10 nM
12,"C[C@H]1CN(c2ccc(-c3nc(-c4cc(F)c5c(c4)CCNC5=O)c(N)nc3F)cc2CN2CCC2)CCO1 [Example I-216, (S)-6-(3-amino-6-(3-(azetidin-1-ylmethyl)-4-(2-methylmorpholino)phenyl)-5-fluoropyrazin-2-yl)-8-fluoro-3,4-dihydroisoquinolin-1(2H)-one]",11 to 100 nM
13,"Cc1nc2cc(-c3nc(-c4ccc(C5CCOCC5)c(CN5CCC[C@H]5C)c4)c(F)nc3N)cc(F)c2c(=O)[nH]1 [Example I-217, (R)-7-(3-amino-5-fluoro-6-(3-((2-methylpyrrolidin-1-yl)methyl)-4-(tetrahydro-2H-pyran-4-yl)phenyl)pyrazin-2-yl)-5-fluoro-2-methylquinazolin-4(3H)-one]",11 to 100 nM
14,"C[C@@H]1CCCN1Cc1cc(-c2nc(-c3cc(F)c4c(c3)CCNC4=O)c(N)nc2F)ccc1C1CCOCC1 [Example I-218, (R)-6-(3-amino-5-fluoro-6-(3-((2-methylpyrrolidin-1-yl)methyl)-4-(tetrahydro-2H-pyran-4-yl)phenyl)pyrazin-2-yl)-8-fluoro-3,4-dihydroisoquinolin-1(2H)-one]",11 to 100 nM
15,"Cc1nc2cc(-c3nc(-c4ccc(C5CCOCC5)c(CN5CCC[C@@H]5C)c4)c(F)nc3N)cc(F)c2c(=O)[nH]1 [Example I-219, (S)-7-(3-amino-5-fluoro-6-(3-((2-methylpyrrolidin-1-yl)methyl)-4-(tetrahydro-2H-pyran-4-yl)phenyl)pyrazin-2-yl)-5-fluoro-2-methylquinazolin-4(3H)-one]",101 to 1000 nM
16,"C[C@H]1CCCN1Cc1cc(-c2nc(-c3cc(F)c4c(c3)CCNC4=O)c(N)nc2F)ccc1C1CCOCC1 [Example I-220, (S)-6-(3-amino-5-fluoro-6-(3-((2-methylpyrrolidin-1-yl)methyl)-4-(tetrahydro-2H-pyran-4-yl)phenyl)pyrazin-2-yl)-8-fluoro-3,4-dihydroisoquinolin-1(2H)-one]",11 to 100 nM
17,"Cc1cc(-c2nc(-c3cc(F)c4c(c3)CCNC4=O)c(N)nc2F)ccc1C1CCOCC1 [Example I-221, 6-(3-amino-5-fluoro-6-(3-methyl-4-(tetrahydro-2H-pyran-4-yl)phenyl)pyrazin-2-yl)-8-fluoro-3,4-dihydroisoquinolin-1(2H)-one]",0.1 to 10 nM
18,"Cc1cc(-c2nc(-c3cc4c(cc3F)C(=O)NCC4)c(N)nc2F)ccc1C1CCOCC1 [Example I-222, 6-(3-amino-5-fluoro-6-(3-methyl-4-(tetrahydro-2H-pyran-4-yl)phenyl)pyrazin-2-yl)-7-fluoro-3,4-dihydroisoquinolin-1(2H)-one]",0.1 to 10 nM
19,"CCN(C)Cc1cc(-c2nc(-c3ccc4c(c3)C(F)(F)CNC4=O)c(N)nc2F)ccc1C1CCOCC1 [Example I-224, 6-(3-amino-6-(3-((ethyl(methyl)amino)methyl)-4-(tetrahydro-2H-pyran-4-yl)phenyl)-5-fluoropyrazin-2-yl)-4,4-difluoro-3,4-dihydroisoquinolin-1(2H)-one]",0.1 to 10 nM
20,"CCN(C)Cc1cc(-c2nc(-c3ccc4c(c3)C(F)(F)CNC4=O)c(N)nc2F)ccc1C1=CCOCC1 [Example I-225, 6-(3-amino-6-(4-(3,6-dihydro-2H-pyran-4-yl)-3-((ethyl(methyl)amino)methyl)phenyl)-5-fluoropyrazin-2-yl)-4,4-difluoro-3,4-dihydroisoquinolin-1(2H)-one]",11 to 100 nM
21,"C[C@@H]1CCCN1Cc1cc(-c2nc(-c3ccc4c(=O)[nH]cc(F)c4c3)c(N)nc2F)ccc1C1CCOCC1 [Example I-226, (R)-6-(3-amino-5-fluoro-6-(3-((2-tmethylpyrrolidin-1-yl)methyl)-4-(tetrahydro-2H-pyran-4-yl)phenyl)pyrazin-2-yl)-4-fluoroisoquinolin-1(2H)-one]",0.1 to 10 nM
22,"C[C@@H]1CCCN1Cc1cc(-c2nc(-c3ccc4c(=O)[nH]cc(Cl)c4c3)c(N)nc2F)ccc1C1CCOCC1 [Example I-227, (R)-6-(3-amino-5-fluoro-6-(3-((2-methylpyrrolidin-1-yl)methyl)-4-(tetrahydro-2H-pyran-4-yl)phenyl)pyrazin-2-yl)-4-chloroisoquinolin-1(2H)-one]",11 to 100 nM
23,"C[C@H]1CCCN1Cc1cc(-c2nc(-c3ccc4c(=O)[nH]cc(F)c4c3)c(N)nc2F)ccc1C1CCOCC1 [Example I-228, (S)-6-(3-amino-5-fluoro-6-(3-((2-methylpyrrolidin-1-yl)methyl)-4-(tetrahydro-2H-pyran-4-yl)phenyl)pyrazin-2-yl)-4-fluoroisoquinolin-1(2H)-one]",0.1 to 10 nM
24,"C[C@H]1CCCN1Cc1cc(-c2nc(-c3ccc4c(=O)[nH]cc(Cl)c4c3)c(N)nc2F)ccc1C1CCOCC1 [Example I-229, (S)-6-(3-amino-5-fluoro-6-(3-((2-methylpyrrolidin-1-yl)methyl)-4-(tetrahydro-2H-pyran-4-yl)phenyl)pyrazin-2-yl)-4-chloroisoquinolin-1(2H)-one]",11 to 100 nM
25,"C[C@@H]1CN(c2ccc(-c3nc(-c4ccc5c(=O)[nH]cc(F)c5c4)c(N)nc3F)cc2CN(C)C)C[C@H](C)O1 [Example I-230, 6-(3-amino-6-(3-((dimethylamino)methyl)-4-((2R,6S)-2,6-dimethylmorpholino)phenyl)-5-fluoropyrazin-2-yl)-4-fluoroisoquinolin-1(2H)-one]",0.1 to 10 nM
26,"C[C@@H]1CN(c2ccc(-c3nc(-c4ccc5c(=O)[nH]cc(Cl)c5c4)c(N)nc3F)cc2CN(C)C)C[C@H](C)O1 [Example I-231, 6-(3-amino-6-(3-((dimethylamino)methyl)-4-((2R,6S)-2,6-dimethylmorpholino)phenyl)-5-fluoropyrazin-2-yl)-4-chloroisoquinolin-1(2H)-one]",0.1 to 10 nM
